Values quoted from earlier work, collected in patent publication US8653059B2, “Heterocyclic compounds as dipeptidyl peptidase-IV inhibitors for the treatment or prevention of diabetes” (Merck Sharp & Dohme Corp., priority 2007, dated 2014).
Blank lines part the entries; values can stand above or below the compound they belong to.

Columns and labels:
cardiac allograft = settings: rats; Transplantation 63: 1495-1500 (1997)
hematopoiesis = settings: mouse model of cyclophosphamide-induced neutropenia; WO 99/56753
DPP-4 = target: T1, DPP-4 (Homo sapiens, UniProt P27487)
T1 construct: GRF is rapidly degraded in plasma to GRF[3-44]; host or cells: plasma
T1 sequence (P27487 whole entry, species assumed): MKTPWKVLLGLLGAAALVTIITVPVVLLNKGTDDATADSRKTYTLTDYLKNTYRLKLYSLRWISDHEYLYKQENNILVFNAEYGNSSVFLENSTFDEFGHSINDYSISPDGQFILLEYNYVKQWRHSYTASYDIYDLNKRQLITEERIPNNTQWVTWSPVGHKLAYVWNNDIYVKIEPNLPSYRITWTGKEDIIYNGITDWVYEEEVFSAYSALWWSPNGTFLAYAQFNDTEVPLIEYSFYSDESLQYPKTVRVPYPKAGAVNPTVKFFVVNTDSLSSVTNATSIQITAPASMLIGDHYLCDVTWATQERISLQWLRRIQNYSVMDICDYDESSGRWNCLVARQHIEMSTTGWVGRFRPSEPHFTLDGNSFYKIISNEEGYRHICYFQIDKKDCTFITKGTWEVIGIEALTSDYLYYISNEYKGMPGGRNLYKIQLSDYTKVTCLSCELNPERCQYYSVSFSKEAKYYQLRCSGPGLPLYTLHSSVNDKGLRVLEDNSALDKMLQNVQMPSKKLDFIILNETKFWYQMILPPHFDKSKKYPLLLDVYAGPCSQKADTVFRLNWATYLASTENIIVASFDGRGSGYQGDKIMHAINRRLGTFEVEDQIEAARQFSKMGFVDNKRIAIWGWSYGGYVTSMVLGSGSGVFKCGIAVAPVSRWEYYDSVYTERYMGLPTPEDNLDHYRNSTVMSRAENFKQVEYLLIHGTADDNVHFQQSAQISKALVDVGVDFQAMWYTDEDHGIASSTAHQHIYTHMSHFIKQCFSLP

Compound: CC(C)N1CCC(c2ccccc2)(c2ccccc2)CC1 [Prodipine, Pro-Pro-diphenyl-phosphonate]
cardiac allograft survival (cardiac allograft): double cardiac allograft survival in rats from day 7 to day 14

Compound: CC(C)[C@H](N)C(=O)N1CCC[C@H]1B(O)O [Val-Boro-Pro]
hematopoiesis (hematopoiesis): stimulated hematopoiesis

degradation of GRF in plasma to GRF[3-44] (DPP-4): prevented
Compound: diprotin A
